From patent publication US20230011869A1 (Hoffmann-La Roche Inc., priority 2018, published 2023) come the findings set out here.

Structures can show the parent of a compound that is named as a salt.

Broadly, the IC90 is the concentration needed for an effect of 90%.

The assay has as its system Acinetobacter baumannii ATCC17978. Briefly: Antimicrobial susceptibility testing: 90% growth inhibitory concentration (IC90) determination, Iso-Sensitest broth. It counts as cell-based. As to conditions: 90% growth inhibitory concentration, Acinetobacter baumannii ATCC17978, Iso-Sensitest broth, OD 600 nm over 16 h; read-out: ATCC17978 IC90. The gist of the method:
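A. baumannii ATCC17978 grown in Iso-Sensitest broth across 10 compound concentrations at 35±2 °C.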
Regarding `COc1ccc(-c2cnc3c(Nc4ccc(C(=O)N5CCN(C(=O)N[C@H](C)CN)CC5)c(C)c4)nccn23)c(F)c1F` [Example 148, N-[(1R)-2-amino-1-methyl-ethyl]-4-[4-[[3-(2,3-difluoro-4-methoxy-phenyl)imidazo[1,2-a]pyrazin-8-yl]amino]-2-methyl-benzoyl]piperazine-1-carboxamide hydrochloride], the IC90 turned out to be 210 nM.

Turning to `COc1ccc(-c2cnc3c(Nc4ccc(C(=O)N5CCN(C(=O)NC[C@H](C)N)CC5)c(C)c4)nccn23)c(F)c1F` [Example 149, N-[(2S)-2-aminopropyl]-4-[4-[[3-(2,3-difluoro-4-methoxy-phenyl)imidazo[1,2-a]pyrazin-8-yl]amino]-2-methyl-benzoyl]piperazine-1-carboxamide], the IC90 was 180 nM.

In the case of `Cc1cc(Nc2nccn3c(-c4ccc(OC(F)F)cc4)cnc23)ccc1C(=O)N1CCN(C(=O)NC[C@@H](C)N)CC1` [Example 150, N-[(2R)-2-aminopropyl]-4-[4-[[3-[4-(difluoromethoxy)phenyl]imidazo[1,2-a]pyrazin-8-yl]amino]-2-methyl-benzoyl]piperazine-1-carboxamide hydrochloride], the IC90 came out at 140 nM. Next, `Cc1cc(Nc2nccn3c(-c4ccc(OC(F)F)cc4)cnc23)ccc1C(=O)N1CCN(C(=O)NC[C@H](C)N)CC1` [Example 151, N-[(2S)-2-aminopropyl]-4-[4-[[3-[4-(difluoromethoxy)phenyl]imidazo[1,2-a]pyrazin-8-yl]amino]-2-methyl-benzoyl]piperazine-1-carboxamide hydrochloride]: 140 nM; `COc1ccc(-c2cnc3c(Nc4ccc(C(=O)N5CCN(C(=O)NC[C@@H](C)N)CC5)c(C)c4)nccn23)c(F)c1F` [Example 152, N-[(2R)-2-aminopropyl]-4-[4-[[3-(2,3-difluoro-4-methoxy-phenyl)imidazo[1,2-a]pyrazin-8-yl]amino]-2-methyl-benzoyl]piperazine-1-carboxamide hydrochloride]: 110 nM.

On to `COc1ccc(-c2cnc3c(Nc4ccc(C(=O)N5CCN(C(=O)NC[C@@H](C)N)CC5)c(C)c4)nccn23)c(Cl)c1F` [Example 155, N-[(2R)-2-aminopropyl]-4-[4-[[3-(2-chloro-3-fluoro-4-methoxy-phenyl)imidazo[1,2-a]pyrazin-8-yl]amino]-2-methyl-benzoyl]piperazine-1-carboxamide formate], for which the IC90 is 150 nM. Consider `COc1ccc(-c2cnc3c(Nc4ccc(C(=O)N5CCN(C(=O)NC[C@H](C)N)CC5)c(C)c4)nccn23)c(Cl)c1F` [Example 156, N-[(2S)-2-aminopropyl]-4-[4-[[3-(2-chloro-3-fluoro-4-methoxy-phenyl)imidazo[1,2-a]pyrazin-8-yl]amino]-2-methyl-benzoyl]piperazine-1-carboxamide formate], for which the concentration for an effect of 90% (IC90) is 180 nM. Next, `Cc1cc(Nc2nccn3c(-c4ccc(OCC#N)c(F)c4Cl)cnc23)ccc1C(=O)N1CCN(C(=O)N2CCO[C@H](CN)C2)CC1` [Example 157, 2-[4-[8-[4-[4-[(2R)-2-(aminomethyl)morpholine-4-carbonyl]piperazine-1-carbonyl]-3-methyl-anilino]imidazo[1,2-a]pyrazin-3-yl]-3-chloro-2-fluoro-phenoxy]acetonitrile formate]: 92 nM; `Cc1cc(Nc2nccn3c(-c4ccc(OCC#N)c(F)c4Cl)cnc23)ccc1C(=O)N1CCN(C(=O)N[C@H](C)CN)CC1` [Example 160, N-[(1R)-2-amino-1-methyl-ethyl]-4-[4-[[3-[2-chloro-4-(cyanomethoxy)-3-fluoro-phenyl]imidazo[1,2-a]pyrazin-8-yl]amino]-2-methyl-benzoyl]piperazine-1-carboxamide formate]: 100 nM. Next, `Cc1cc(Nc2nccn3c(-c4ccc(OCC#N)c(F)c4Cl)cnc23)ccc1C(=O)N1CCN(C(=O)NC[C@@H](C)N)CC1` [Example 164, N-[(2R)-2-aminopropyl]-4-[4-[[3-[2-chloro-4-(cyanomethoxy)-3-fluoro-phenyl]imidazo[1,2-a]pyrazin-8-yl]amino]-2-methyl-benzoyl]piperazine-1-carboxamide formate]: 71 nM.

With `Cc1cc(Nc2nccn3c(-c4ccc(OCC#N)c(F)c4Cl)cnc23)ccc1C(=O)N1CCN(C(=O)NC[C@H](C)N)CC1` [Example 165, N-[(2S)-2-aminopropyl]-4-[4-[[3-[2-chloro-4-(cyanomethoxy)-3-fluoro-phenyl]imidazo[1,2-a]pyrazin-8-yl]amino]-2-methyl-benzoyl]piperazine-1-carboxamide formate], the 90% effect concentration (IC90) worked out at 71 nM. To `COc1ccc(-c2cnc3c(Nc4ccc(C(=O)N5CCN(C(=O)N[C@H](C)CN)CC5)c(C)c4)nccn23)c(Cl)c1F` [Example 166, formate] belongs 200 nM.

Turning to `COc1ccc(-c2cnc3c(Nc4ccc(C(=O)N5CCN(C(=O)N6CCO[C@H](CN)C6)CC5)c(C)c4)nccn23)c(Cl)c1F` [Example 167, [4-[(2R)-2-(aminomethyl)morpholine-4-carbonyl]piperazin-1-yl]-[4-[[3-(2-chloro-3-fluoro-4-methoxy-phenyl)imidazo[1,2-a]pyrazin-8-yl]amino]-2-methyl-phenyl]methanone formate], the IC90 was 220 nM. Next, `Cc1cc(Nc2nccn3c(-c4ccc(OC(F)F)cc4)cnc23)ccc1C(=O)N1CCN(C(=O)NCCN2CCC2)CC1` [Example 168, N-[2-(azetidin-1-yl)ethyl]-4-[4-[[3-[4-(difluoromethoxy)phenyl]imidazo[1,2-a]pyrazin-8-yl]amino]-2-methyl-benzoyl]piperazine-1-carboxamide formate]: 470 nM; `Cc1cc(Nc2nccn3c(-c4ccc(OC(F)F)cc4)cnc23)ccc1C(=O)N1CCN(C(=O)NC2CNC2)CC1` [Example 169, N-(azetidin-3-yl)-4-[4-[[3-[4-(difluoromethoxy)phenyl]imidazo[1,2-a]pyrazin-8-yl]amino]-2-methyl-benzoyl]piperazine-1-carboxamide trifluoroacetate]: 470 nM; `COc1ccc(-c2cnc3c(Nc4ccc(C(=O)N5CCN(C(=O)C6CCCN6)CC5)c(C)c4)nccn23)cc1F` (stereo not drawn) [Example 174, [4-[[3-(3-fluoro-4-methoxy-phenyl)imidazo[1,2-a]pyrazin-8-yl]amino]-2-methyl-phenyl]-[4-(pyrrolidine-2-carbonyl)piperazin-1-yl]methanone]: 300 nM. As for `COc1ccc(-c2cnc3c(Nc4ccc(C(=O)N5CCN(C(=O)[C@@H]6CCN6)CC5)c(C)c4)nccn23)cc1F` [Example 175, [4-[(2S)-azetidine-2-carbonyl]piperazin-1-yl]-[4-[[3-(3-fluoro-4-methoxy-phenyl)imidazo[1,2-a]pyrazin-8-yl]amino]-2-methyl-phenyl]methanone], the IC90 stood at 250 nM. To `Cc1cc(Nc2nccn3c(-c4ccc(OC(F)F)cc4)cnc23)ccc1C(=O)N1CCN(C(=O)[C@@H]2CCN2)CC1` [Example 176, [4-[(2S)-azetidine-2-carbonyl]piperazin-1-yl]-[4-[[3-[4-(difluoromethoxy)phenyl]imidazo[1,2-a]pyrazin-8-yl]amino]-2-methyl-phenyl]methanone hydrochloride] belongs 130 nM.
